Results reported in patent US10226474B2, “Methods and compositions for treatment of non-alcoholic steatohepatitis” (Temple University—Of The Commonwealth System of Higher …, priority 2017, dated 2019).
Where two headings read alike, the source gives them in different places.

Assays:
NASH patients [1] = details: oral dose of 150 mg, one year, cited from earlier work
[2] = tested on: DIAMOND™ mouse model of NASH; assay: Efficacy of fluasterone in the DIAMOND mouse model of NASH (Western Diet Sugar Water); type: in vivo; details: for mice progressed to measurable fibrosis by NASH CRN score: 24 week WDSW group 5/10
Protocol: DIAMOND™ (Diet Induced Animal Model of Non-alcoholic fatty liver Disease) mouse model is a mouse model of NASH. This mouse model was used to assess the effect of fluasterone. The drug formulation (subcutaneous injectable formulation) contained fluasterone as an active pharmaceutical ingredient in a vehicle. The vehicle contained RO (reverse osmosis) water mixed with sterile saline solution and 5% Tween-80. The drug formulation was prepared as follows: micronized powder of fluasterone (submicron range particles of fluasterone) was suspended in the vehicle and vortexed to evenly suspend. Two doses of fluasterone were used and compared to vehicle controls and positive and negative natural history controls to determine the impact on weight gain, fatty liver, steatohepatitis, and the progression to fibrosis. The two different doses of fluasterone used were (i) a low dose (LD) fluasterone (5 mg fluasterone/kg body weight) for 8 weeks and (ii) a high dose (HD) fluasterone (20 mg fluasterone/kg body weight) for 8 weeks. Vehicle Control was sterile saline with 5% Tween-80. The other details are as follows: (1) Animal Species: DIAMOND™ Mice (Male C57BL/6J(B6)-129s1/SvImJ(S129)). (2) Positive Control and Treatment Groups' food and drinking water: (a) Food—Western Diet ENVIGO Harlan/Teklad 42% Adjusted Calories from Fat (TD. 88137), and (b) RO Water—Sugar Water—D-fructose Alfa Aesar #A17718 and D-glucose Water—Fisher Scientific #D19-212; Recipe=231 g Fructose+189 g Glucose+750 ml RO (reverse osmosis) water Diluted into 9 L RO Water. This diet is referred to herein as Western Diet Sugar Water (WDSW). (3) Negative Control Group's food and drinking water: (a) Normal Mouse Chow Diet—ENVIGO Harlan/Teklad Normal Rodent Chow (TD 7012 Teklad LM-485), and (b) RO water. This diet is referred to herein interchangeably as Normal Diet Normal Water (NDNW) and Normal Chow Normal Water (NCNW).
Eight-two (82) DIAMOND™ mice were put on the special diet WDSW (high fat diet (Harlan/Teklad 42% fat) and sweetened water (D-Fructose and D-Glucose)) at time point 0 (t=0) (at eight weeks of age). Mice were weighed weekly. Of these, 10 mice were injected subcutaneously with fluasterone at concentration 5 mg/kg and 10 mice were injected subcutaneously with fluasterone at concentration 20 mg/kg, and 5 mice in a staggered group were injected with vehicle starting at 16 weeks on diet (t=16) until 24 weeks (t=24), as described in “Subcutaneous Injection.” For baseline controls, 8 male DIAMOND™ mice were placed on the WDSW at eight weeks of age and given no treatment; these were the positive natural history controls. A second group of 8 male DIAMOND™ mice were continued on the NCNW/NDNW at eight (8) weeks and these were the negative natural history control group. The mice were weighed weekly. At 16, 20, and 24 weeks on diet, fasting insulin was measured in serum from tail vein nick. HOMA-IR scores were calculated. 8 mice on WDSW and 8 mice NDNW were sacrificed at 16 weeks (t=16) on diet as baseline positive and negative controls. 8 mice on WDSW and 8 mice NDNW were sacrificed at 24 weeks (t=24). Carbon dioxide was used as an anesthetic and a cardiac puncture was performed for exsanguination. Cervical dislocation was performed as a secondary means of euthanasia.
As discussed above, the drug formulation used in this experiment contained fluasterone as an active pharmaceutical ingredient in a vehicle. The vehicle contained RO water mixed with sterile saline solution and 5% Tween-80.
Body Weights: Mice were weighed weekly and the weights determined the amount of test compound administered.
Subcutaneous Injection: The mice received a subcutaneous injection 1× daily. In summary, mice were grasped at the scruff of the neck and a suitable place was selected for the injection. The injection site was moved daily to ensure limited distress to the animal. […]

mouse diabetic model = details: U.S. Pat. No. 8,431,555; cited from earlier work
[3] = tested on: TPA-stimulated epidermal hyperplasia in mouse skin; details: cited from earlier work
NASH patients [4] = details: obeticholic acid treatment; cited from earlier work
[5] = tested on: Nonalcoholic Steatohepatitis patients; details: PIVENS histologic response criteria; 0.025 considered statistically significant; cited from earlier work

Compound: CSc1ccc(C(=O)/C=C/c2cc(C)c(OC(C)(C)C(=O)O)c(C)c2)cc1 [GFT 505]
- improvement in histologically-assessed NASH vs. placebo (NASH patients [1]; all patients): failed to produce a statistically significant improvement
- improvement in histologically-assessed NASH vs. placebo (NASH patients [1]; patients with the mildest form of NASH (NAS<3) excluded): statistically significant improvement vs. placebo

Compound: C[C@]12CCCCC1=CC[C@@H]1[C@@H]2CC[C@]2(C)C(=O)[C@H](F)C[C@@H]12 [fluasterone, 16α-fluoro-5-androsten-17-one]
- fasting blood ketones at necropsy ([2]; both low dose 5 mg/kg (P 0.01) and high dose 20 mg/kg (P 0.0005) vs 24 weeks WDSW): significantly lower
- fasting blood glucose ([2]; both low dose 5 mg/kg and high dose 20 mg/kg s.c., 8 weeks, vs 24 weeks WDSW, P 0.003 each (FIG. 3)): significantly improved
- SAF Activity score ([2]; both treatment groups vs 24 week positive controls, high dose P<0.039, low dose P<0.008 (FIG. 17)): improved the SAF scores
- NAS score ([2]; both treatment groups vs 24 week positive controls, high dose P<0.05, low dose P<0.001 (FIG. 18)): improved the NAS score
- lobular inflammation ([2]; both treatment groups vs 24 weeks WDSW, high dose P<0.01, low dose P<0.032 (FIG. 14)): significantly reduced inflammation
- serum triglycerides ([2]; fluasterone-treated mice vs WDSW): no significant difference
- total serum cholesterol ([2]; fluasterone-treated mice vs WDSW positive controls, low dose P=0.0504): lower total serum cholesterol
- liver weight vs WDSW positive control ([2]; high dose 20 mg/kg s.c. 1x daily for 8 weeks (weeks 16-24 on WDSW), P=0.054): smaller livers compared to the WDSW 24 wk control group
- fibrosis (NASH CRN) ([2]; high dose 20 mg/kg vs 24 week positive controls, P=0.15): not statistically less fibrotic although there was a trend
- alkaline phosphatase (ALP) ([2]; high dose 20 mg/kg vs WDSW control, P=0.058): strong trend to improvement
- mice that progressed to NASH ([2]; high dose 20 mg/kg, 24 week WDSW control 10/10, baseline (16 weeks) 5/10): 5/10
- mice progressed to measurable fibrosis by NASH CRN score ([2]; high dose 20 mg/kg): 2/10
- perisinusoidal fibrosis ([2]; high dose 20 mg/kg, P value of 0.052): almost statistically significant
- fasting insulin (ELISA) ([2]; low and high dose groups vs WDSW positive control, baseline (16 weeks) and end of study (24 weeks)): not statistically significant between drug treated groups and WDSW positive control
- HOMA IR ([2]; low and high dose groups vs positive WDSW control, data not shown): comparable between the positive WDSW control and the drug treated groups
- steatosis grade ([2]; low and high dose groups vs positive controls): neither treatment group had improved steatosis grade
- necropsy body weight ([2]; low dose 5 mg/kg and high dose 20 mg/kg s.c., 8 weeks, vs 24 week WDSW): comparable to the 24 week positive WDSW controls
- liver weight vs WDSW positive control ([2]; low dose 5 mg/kg s.c. 1x daily for 8 weeks (weeks 16-24 on WDSW), P=0.12): smaller livers than the WDSW positive control group, however the difference was not statistically significant
- AST ([2]; low dose 5 mg/kg vs 24 week WDSW, P=0.10): statistically significant drop in AST
- hepatocyte ballooning ([2]; low dose 5 mg/kg vs 24 week positive control, P=0.026): statistically less ballooning
- fibrosis (NASH CRN) ([2]; low dose 5 mg/kg vs 24 week positive controls, P=0.057): lower than the 24 week positive controls
- alkaline phosphatase (ALP) ([2]; low dose 5 mg/kg vs WDSW control, P=0.01): significantly lower
- steatosis percentage ([2]; low dose 5 mg/kg vs positive controls, P=0.032): statistically significantly less steatosis percentage
- mice that developed NASH ([2]; low dose 5 mg/kg, 24 week WDSW control 10/10, baseline (16 weeks) 5/10): 7/10
- mice progressed to measurable fibrosis by NASH CRN score ([2]; low dose 5 mg/kg): 1/10
- perisinusoidal fibrosis ([2]; low dose 5 mg/kg, P=0.002): significantly less perisinusoidal fibrosis
- ALT ([2]; treated mice vs 24 week positive control, P 0.11 (low dose) and 0.051 (high dose)): strong trend towards improved ALT (lower ALT)
- hyperglycemia (mouse diabetic model): effective in reducing hyperglycemia
- effective dose abolishing TPA-stimulated epidermal hyperplasia ([3]; oral): at least 200 mg/kg
- lowest effective dose abolishing TPA-stimulated epidermal hyperplasia ([3]; subcutaneous injection): 2.5 mg/kg

Compound: CC[C@H]1[C@@H](O)[C@@H]2[C@H](CC[C@]3(C)[C@@H]([C@H](C)CCC(=O)O)CC[C@@H]23)[C@@]2(C)CC[C@@H](O)C[C@@H]12 [obeticholic acid]
- insulin sensitivity (NASH patients [4]): decrease in insulin sensitivity
- plasma LDL and total cholesterol (NASH patients [4]): significant increase

Compound: Vitamin E
- histologic improvement compared with placebo [5]: significant histologic improvement compared with placebo
